Experimental data published in US20070015777A1, “Use of Inhibitors of the Ubiquitin Proteasome Pathway as a Method of Increasing Contractility of the Heart” (Myogen, Inc., priority 2005, published 2007).
Entries after “also recorded” stand apart in the source; their conditions may differ. Peptide text beside a SMILES is read from it. * marks the point of attachment. Cbz = O=C(OCc1ccccc1)*

Key:
phospholamban (PLB) = experiment: Western blot analysis of NRVM: phospholamban; type: cell-based, rat; conditions: with or without phenylephrine 20 μM, MG132 370, 1500 and 3000 nM, 48 hours, Western blot (FIG. 3)
Procedure: (§1) NRVM culture. For preparations of neonatal rat ventricular myocytes (NRVMs), hearts were removed from 10-20 newborn (1-2 days old) Sprague-Dawley rats. Isolated ventricles were pooled, minced and dispersed by three 20-minute incubations at 37° C. in Ads buffer (116 mM NaCl, 20 mM HEPES, 10 mM NaH2PO4, 5.5 mM glucose, 5 mM KCl, 0.8 mM MgSO4, pH 7.4) containing collagenase Type 11 (65 units/ml, Worthington) and pancreatin (0.6 mg/ml, GibcoBRL). Dispersed cells were applied to a discontinuous gradient of 40.5% and 58.5% (v/v) Percoll (Amersham Biosciences), centrifuged, and myocytes collected from the interface layer. […]
(§2) Western Blots. […] Protein concentrations were determined by the bicinchoninic acid method (BCA Protein Assay, Pierce) with bovine serum albumin as a standard. Equivalent quantities of protein samples (10 μg/lane) were denatured in Laemmli buffer and resolved on Tris-glycine SDS-PAGE gels (4-20% acrylamide gradient, Invitrogen). […]

alpha myosin heavy chain = experiment: Western blot analysis of NRVM: alpha myosin heavy chain; type: cell-based, rat; conditions: with or without phenylephrine 20 μM, MG132 370, 1500 and 3000 nM, 48 hours, Western blot (FIG. 3)
Procedure: as §1, §2

[1] = system: alpha myosin heavy chain protein; experiment: Cytoblot assay for alpha myosin heavy chain protein content in NRVM; type: cell-based, rat; conditions: MG132 100 nM, 48 hours, cytoblot (FIG. 1)
Procedure: as §1, with “layer. Myocyte preparations were pre-plated in Dulbecco's modified Eagle's medium (DMEM, Cellgro), supplemented with 10% (v/v) charcoal stripped fetal bovine serum (FBS, HyClone), 4 mM L-glutamine and 1% penicillin/streptomycin for 1 hour at 37° C. to reduce fibroblast contamination, then plated at a density of 2.5×10^5 cells per well on 6-well tissue culture plates (or 10,000 cells/well on 96-well tissue culture plates) coated with a 0.2% (w/v) gelatin solution.” for “layer.”
(§3) NRVM protein quantitation by cytoblot (alpha myosin, beta myosin, MCIP1). […] Plates were read in a 96-well luminometer (Packard Fusion).

[2] = system: atrial natriuretic factor (ANF) secretion; experiment: Competitive ANF ELISA on media supernatants of phenylephrine-treated NRVM; type: cell-based; conditions: Rattus norvegicus, 48 h, phenylephrine 20 μM, 48 hours (FIG. 4), read-out: EC50 for suppression of PE-induced ANF secretion
Procedure: as §1
(§4) ANF and toxicity assays. ANF in media supernatants was quantitated by competitive ELISA using a monoclonal anti-ANF antibody (Biodesign) and a biotinylated ANF peptide (Phoenix Peptide). Total cellular protein was quantitated by standard Coomassie dye-binding assay; cells were lysed in protein assay reagent (BioRad) and absorbance at A595 was measured after 1 hour. Cytotoxicity was quantitated by measuring release of adenylate kinase (AK) from cultured NRVM into culture medium (ToxiLight kit, Cambrex).

SERCA = experiment: Western blot analysis of NRVM: SERCA; type: cell-based, rat; conditions: with or without phenylephrine 20 μM, MG132 370, 1500 and 3000 nM, 48 hours, Western blot (FIG. 3)
Procedure: as §1, §2

phospho-phospholamban = experiment: Western blot analysis of NRVM: phospho-phospholamban; type: cell-based, rat; conditions: with or without phenylephrine 20 μM, MG132 370, 1500 and 3000 nM, 48 hours, Western blot (FIG. 3)
Procedure: as §1, §2

[3] = system: neonatal rat ventricular myocytes (NRVMs); conditions: NRVM cell culture model, Dreger 2002; cited from earlier work
[4] = system: nuclear factor of activated T cells (NFAT); experiment: Calcineurin-dependent nuclear import of GFP-NFAT in adenovirus-infected NRVM (immunofluorescence); type: cell-based, rat; conditions: NRVM infected with adenovirus encoding activated calcineurin and GFP-NFAT, MG132 1 μM (FIG. 7)
Procedure: (§5) NRVM culture. For preparations of neonatal rat ventricular myocytes (NRVMs), hearts were removed from 10-20 newborn (1-2 days old) Sprague-Dawley rats. Isolated ventricles were pooled, minced and dispersed by three 20-minute incubations at 37° C. in Ads buffer (116 mM NaCl, 20 mM HEPES, 10 mM NaH2PO4, 5.5 mM glucose, 5 mM KCl, 0.8 mM MgSO4, pH 7.4) containing collagenase Type 11 (65 units/ml, Worthington) and pancreatin (0.6 mg/ml, GibcoBRL). Dispersed cells were applied to a discontinuous gradient of 40.5% and 58.5% (v/v) Percoll (Amersham Biosciences), centrifuged, and myocytes collected from the interface layer. Myocyte preparations were pre-plated in Dulbecco's modified Eagle's medium (DMEM, Cellgro), supplemented with 10% (v/v) charcoal stripped fetal bovine serum (FBS, HyClone), 4 mM L-glutamine and 1% penicillin/streptomycin for 1 hour at 37° C. to reduce fibroblast contamination, then plated at a density of 2.5×10^5 cells per well on 6-well tissue culture plates (or 10,000 cells/well on 96-well tissue culture plates) coated with a 0.2% (w/v) gelatin solution. After 24 hours in culture, myocyte preparations were transferred to serum-free maintenance medium (DMEM supplemented with 0.1% (v/v) Nutridoma (Roche), L-glutamine and penicillin/streptomycin). Where indicated, NRVM were treated with test compounds for a period of 48 hrs. […]

[5] = system: modulatory calcineurin interacting protein 1 (MCIP1); experiment: Cytoblot assay for MCIP1 protein content in NRVM; type: cell-based, rat
Procedure: as §5, with “solution.” for “solution. After 24 hours in culture, myocyte preparations were transferred to serum-free maintenance medium (DMEM supplemented with 0.1% (v/v) Nutridoma (Roche), L-glutamine and penicillin/streptomycin). Where indicated, NRVM were treated with test compounds for a period of 48 hrs.”
as §3

[6] = system: β-myosin heavy chain protein; experiment: Cytoblot assay for beta myosin heavy chain protein content in phenylephrine-treated NRVM; type: cell-based, rat; conditions: phenylephrine 20 μM, MG132 100 and 1000 nM, 48 hours, cytoblot (FIG. 2)
Procedure: as §5, with “solution.” for “solution. After 24 hours in culture, myocyte preparations were transferred to serum-free maintenance medium (DMEM supplemented with 0.1% (v/v) Nutridoma (Roche), L-glutamine and penicillin/streptomycin). Where indicated, NRVM were treated with test compounds for a period of 48 hrs.”
as §3

MCIP1 protein = experiment: Western blot analysis for MCIP1 protein in NRVM; type: cell-based, rat; conditions: range of MG132 concentrations, 48 hours (FIG. 6)
Procedure: as §1, §2

[7] = system: total ubiquitinated protein; experiment: Western blot analysis for total ubiquitinated protein in NRVM; type: cell-based, rat; conditions: range of MG132 concentrations, 48 hours (FIG. 6)
Procedure: as §1, §2

NRVM = experiment: Cytotoxicity assay (adenylate kinase release, ToxiLight) in NRVM; type: cell-based, rat; conditions: 48 hours, at MG132 concentrations that suppress hypertrophy (FIG. 4)
Procedure: as §1, §4

## CC(C)C[C@@H](C=O)NC(=O)[C@H](CC(C)C)NC(=O)[C@H](CC(C)C)NC(=O)OCc1ccccc1 [MG132] (Cbz-Leu-Leu-Leu-aldehyde)
Phospholamban (PLB)
  expression of phospholamban (PLB): decreased expression of the SERCA inhibitory protein, phospholamban (PLB); also recorded: decreases expression of cardiac phospholamban
Alpha myosin heavy chain
  expression of alpha myosin heavy chain (Western blot): increases expression of SERCA, alpha myosin heavy chain
[1]
  alpha myosin heavy chain protein content: significantly increased expression of alpha myosin heavy chain protein; also recorded: increases cardiac alpha myosin heavy chain protein expression
[2]
  EC50: ~20 nM
SERCA
  expression of SERCA protein: increased in vitro expression of cardiac SERCA protein; also recorded: increases expression of SERCA
phospho-phospholamban
  PLB phosphorylation (phospho-phospholamban): dose-dependent increase in PLB phosphorylation; also recorded: increases expression of SERCA, alpha myosin heavy chain and phospho-phospholamban
[3]
  anti-hypertrophic effect (β-MyHC levels, cell size and morphology, BNP, sarcomeric actin): anti-hypertrophic
[4]
  calcineurin-dependent nuclear import of GFP-NFAT: blocked the ability of constitutively activated calcineurin to promote nuclear import of NFAT; also recorded: suppresses calcineurin-dependent nuclear import
[5]; Rattus norvegicus, 48 hours, cytoblot (FIG. 5), read-out: EC50 for induction of cardiac MCIP1 expression
  EC50: 10 nM
[5]; range of MG132 concentrations, 48 hours (FIG. 5)
  MCIP1 protein expression (cytoblot): dose-dependent increase in expression of modulatory calcineurin interacting protein 1 (MCIP1); also recorded: increases cardiac modulatory calcineurin interacting protein 1 (MCIP1) protein expression
[6]
  β-myosin heavy chain protein content: effectively suppressed adrenergic agonist (phenylephrine) dependent upregulation of beta myosin heavy chain protein; also recorded: suppresses hypertrophic agonist-dependent increases in cardiac beta myosin heavy chain protein expression
MCIP1 protein
  MCIP1 protein expression (Western blot): increases cardiac modulatory calcineurin interacting protein 1 (MCIP1) protein expression
[7]
  total ubiquitinated protein: induced accumulation of ubiquitinated protein
NRVM
  cytotoxicity (release of adenylate kinase): no release of adenylate kinase (AK); also recorded: non-cytotoxic concentrations
